Assay results reported in patent EP0383919A1, “STAUROSPORIN DERIVATIVES” (KYOWA HAKKO KOGYO CO., LTD., priority 1988, dated 1989).
In brackets after ≈: the same amount, converted by molar mass. Like-named read-outs stand apart in the source and are kept apart here.

What was measured:
CoLo 320DM cells = test: CoLo 320DM cell growth inhibition assay; format: cell-based; conditions: Homo sapiens, read-out: IC50 CoLo 320DM
Description: (2) CoLo 320DM cell growth inhibition assay:
Then, the same procedure as (1) is followed and the counting of cells is carried out with a microcell counter.

HeLa S3 cells = test: HeLa S3 cell growth inhibition assay; format: cell-based; conditions: for IC50: Homo sapiens, HeLa S3, 72 h, read-out: IC50 HeLa S3
Description: (1) HeLa S3 cell growth inhibition assay:
A suspension of HeLa S3 cells (3 x 10^4 cells/ml) in MEM containing 10% fetal serum and 2 mM glutamine is distributed in 0.1 ml portions into the wells of a 96-well microtiter plate and incubated overnight in a C02 incubator at 37°C. Then, 0.05 ml portions of an appropriately diluted solution of the test compound are added. The cells are further cultured in the C02 incubator and the culture supernatant is discarded. After washing with PBS (-) once, 0.1 ml portions of fresh medium are added to the wells and the incubation is continued in the C02 incubator at 37°C for 72 hours. After the culture supernatant is discarded, 0.1 ml portions of culture medium containing 0.02% neutral red are added to the respective wells and the microtiter plate is incubated in the C02 incubator at 37°C for 1 hour to stain the cells. After removal of the culture supernatant, the plate is washed with physiological saline once and the dye is extracted with 0.001 N HC1/30% ethanol. Then, using a microplate reader, the absorbances at 550 nm are measured.

Protein kinase A = molecular target: T1, Protein kinase A (Bos taurus, UniProt P00517); test: biochemical; conditions: crude enzyme partially purified from the calf heart, histone type IIS, c-AMP
T1 construct: a crude enzyme (partially purified from the calf heart by the method of Kuo et al.); from tissue; host or cells: calf heart
Description: (2) Protein kinase A inhibition assay:
Then, the same procedure as the above-described protein kinase C inhibition assay is carried out to calculate IC50.

[1] = read-out: IC50 Protein kinase A (converted)
[2] = 50% growth inhibition concentration, neutral red staining, absorbance at 550 nm, 72 hours incubation after washing
[3] = 50% cell growth inhibition concentration, cell counting with a microcell counter

Row | SMILES | IC50 (Protein kinase A; [1]) | IC50 (HeLa S3 cells; [2]) | other results
1 | CNC1CC2OC(C)(C1OC)n1c3ccccc3c3c4c(c5c6ccccc6n2c5c31)C(=O)N(C)C4=O (stereo not drawn) [Compound 14] |  |  | IC50 (CoLo 320DM cells): > 1 µg/mL; IC50 (HeLa S3 cells): 0.78 µg/mL (≈ 1.58 µM)
2 | COC1C(N(C)C=O)CC2OC1(C)n1c3ccccc3c3c4c(c5c6ccccc6n2c5c31)C(=O)NC4 (stereo not drawn) [Compound 3] | 20200 nM |  | 
3 | CNC1CC2OC(C)(C1OC)n1c3ccccc3c3c4c(c5c6ccccc6n2c5c31)C(=O)N(N)C4=O (stereo not drawn) [Compound 5] |  |  | IC50 (CoLo 320DM cells): 0.59 µg/mL (≈ 1.19 µM); IC50 (HeLa S3 cells): 0.75 µg/mL (≈ 1.51 µM)
4 | CNC1CC2OC(C)(C1OC)n1c3ccccc3c3c4c(c5c6ccccc6n2c5c31)C(=O)NC4=O (stereo not drawn) [Compound 15] |  |  | IC50 (Protein kinase A; IC50 Protein kinase A): 27.1 nM
5 | CNC1CC2OC(C)(C1OC)n1c3ccccc3c3c4c(c5c6ccccc6n2c5c31)C(=O)NC4OC (single isomer, unassigned) [Compound 17] | 242 nM | 0.16 µg/mL (≈ 0.322 µM) | 
6 | CNC1CC2OC(C)(C1OC)n1c3ccccc3c3c4c(c5c6ccccc6n2c5c31)C(=O)NC4OC (single isomer, unassigned) [Compound 16] | 383 nM |  | IC50 HeLa S3 (HeLa S3 cells; [2]): 0.20 µg/mL (≈ 0.403 µM)
7 | CNC1CC2OC(C)(C1OC)n1c3ccccc3c3c4c(c5c6ccccc6n2c5c31)C(=O)NC4OC (stereo not drawn) [Compound 11] | 322 nM | 0.17 µg/mL (≈ 0.342 µM) | IC50 (CoLo 320DM cells; [3]): 0.14 µg/mL (≈ 0.282 µM)
8 | COC1C(N(C)C(C)=O)CC2OC1(C)n1c3ccccc3c3c4c(c5c6ccccc6n2c5c31)C(=O)NC4=O (stereo not drawn) [Compound 13] | 68.9 nM |  | 
9 | CNC1CC2OC(C)(C1OC)n1c3ccccc3c3c4c(c5c6ccccc6n2c5c31)C(=O)NC4OC(C)C (stereo not drawn) [Compound 18] |  | 0.29 µg/mL (≈ 0.553 µM) | 
10 | CN[C@@H]1C[C@H]2O[C@@](C)([C@@H]1OC)n1c3ccccc3c3c4c(c5c6ccccc6n2c5c31)C(=O)N[C@@H]4O [UCN-01, reference compound] |  |  | IC50 (HeLa S3 cells): 0.17 µg/mL (≈ 0.352 µM); IC50 (Protein kinase A; IC50 Protein kinase A): 41.4 nM
11 | CCOC1NC(=O)c2c1c1c3ccccc3n3c1c1c2c2ccccc2n1C1CC(NC)C(OC)C3(C)O1 (stereo not drawn) [Compound 20] |  | 0.29 µg/mL (≈ 0.568 µM) | 
12 | CCCCOC1NC(=O)c2c1c1c3ccccc3n3c1c1c2c2ccccc2n1C1CC(NC)C(OC)C3(C)O1 (stereo not drawn) [Compound 19] |  |  | IC50 (HeLa S3 cells): 0.32 µg/mL (≈ 0.594 µM)
13 | CNC1CC2OC(C)(C1OC)n1c3ccccc3c3c4c(c5c6ccccc6n2c5c31)C(=O)N(C=O)C4 (stereo not drawn) [Compound 4] |  | 0.18 µg/mL (≈ 0.364 µM) | IC50 (CoLo 320DM cells; [3]): 0.19 µg/mL (≈ 0.384 µM)
14 | COC1C(N(C)C(=O)CN)CC2OC1(C)n1c3ccccc3c3c4c(c5c6ccccc6n2c5c31)C(=O)NC4 (stereo not drawn) [Compound 10] |  | 0.051 µg/mL (≈ 0.0974 µM) | IC50 (CoLo 320DM cells; [3]): 0.55 µg/mL (≈ 1.05 µM)
15 | COC1C(N(C)C(C)=O)CC2OC1(C)n1c3ccccc3c3c4c(c5c6ccccc6n2c5c31)C(=O)NC4 (stereo not drawn) | 59 nM |  | 
